Results: ChEMBL document CHEMBL1201862, “PubChem BioAssay data set” (2004)
Calls of active or inactive are those of the source.

Experiments:
[1] = IC50 of insulin release inhibition, rat insulinoma INS-1E line, 5 mM glucose, cell-based (AID 1117331); assay type: functional
[2] = biological target: T1, RNA-binding protein pos-1 (Caenorhabditis elegans, UniProt G5EF15); experiment: disruptors of C. elegans POS-1 RNA interaction – biochemical, fluorescence polarization, dose response (AID 1964);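 further: purified POS-1 fused to maltose binding protein made in E. coli; potency of compounds blocking POS-1 binding to fluorescent RNA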
T1 sequence (G5EF15 whole entry): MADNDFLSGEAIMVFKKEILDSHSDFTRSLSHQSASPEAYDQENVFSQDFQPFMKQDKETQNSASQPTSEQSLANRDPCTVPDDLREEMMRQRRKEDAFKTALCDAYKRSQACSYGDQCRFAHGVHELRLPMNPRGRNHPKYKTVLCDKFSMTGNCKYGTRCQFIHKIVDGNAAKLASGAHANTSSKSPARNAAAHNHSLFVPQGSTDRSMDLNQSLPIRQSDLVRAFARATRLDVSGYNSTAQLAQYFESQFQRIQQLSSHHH

[3] = biological target: T2, Zinc finger protein mex-5 (Caenorhabditis elegans, UniProt Q9XUB2); experiment: potency of MEX-5 RNA-binding blockers – biochemical, C. elegans, fluorescence polarization, dose response (AID 1960)
T2 sequence (Q9XUB2 whole entry): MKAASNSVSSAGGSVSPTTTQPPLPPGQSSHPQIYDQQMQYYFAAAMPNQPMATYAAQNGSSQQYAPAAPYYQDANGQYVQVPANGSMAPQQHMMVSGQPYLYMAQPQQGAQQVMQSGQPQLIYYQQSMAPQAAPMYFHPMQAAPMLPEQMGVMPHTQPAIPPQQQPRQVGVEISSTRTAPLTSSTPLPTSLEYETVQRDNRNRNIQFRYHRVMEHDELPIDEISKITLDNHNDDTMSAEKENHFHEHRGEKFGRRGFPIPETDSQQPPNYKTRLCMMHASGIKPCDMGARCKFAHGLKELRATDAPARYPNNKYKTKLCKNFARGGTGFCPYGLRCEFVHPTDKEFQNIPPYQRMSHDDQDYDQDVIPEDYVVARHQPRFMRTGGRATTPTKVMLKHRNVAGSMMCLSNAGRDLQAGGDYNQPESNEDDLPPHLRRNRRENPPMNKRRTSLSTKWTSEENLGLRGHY

[4] = biological target: T3, Bifunctional protein GlmU (Mycobacterium tuberculosis, UniProt P9WMN3); experiment: Inhibitors of Mycobacterial Glucosamine-1-phosphate acetyl transferase (GlmU). Secondary screen.; design: species or system Mycobacterium tuberculosis H37Rv
T3 sequence (P9WMN3 whole entry): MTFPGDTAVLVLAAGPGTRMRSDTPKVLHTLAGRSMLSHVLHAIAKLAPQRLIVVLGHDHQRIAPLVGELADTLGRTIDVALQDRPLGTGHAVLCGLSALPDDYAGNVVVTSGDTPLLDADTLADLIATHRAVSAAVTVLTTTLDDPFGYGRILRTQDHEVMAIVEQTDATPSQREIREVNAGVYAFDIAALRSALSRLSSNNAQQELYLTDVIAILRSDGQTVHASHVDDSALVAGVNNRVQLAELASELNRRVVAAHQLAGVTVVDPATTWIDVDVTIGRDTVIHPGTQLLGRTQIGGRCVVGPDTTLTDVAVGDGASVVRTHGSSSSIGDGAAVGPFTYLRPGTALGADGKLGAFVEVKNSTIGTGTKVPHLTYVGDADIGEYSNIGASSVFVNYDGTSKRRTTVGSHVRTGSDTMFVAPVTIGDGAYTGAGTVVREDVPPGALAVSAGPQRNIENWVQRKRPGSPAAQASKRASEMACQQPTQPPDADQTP

[5] = biological target: DNA dC->dU-editing enzyme APOBEC-3A (Homo sapiens, UniProt P31941); experiment: Dose Response confirmation of small molecule APOBEC3A DNA Deaminase Inhibitors via a fluorescence-based single-stranded DNA deaminase assay. [Related pubchem assays (depositor defined):AID493011, AID493024]; assay type: functional
DNA dC->dU-editing enzyme APOBEC-3A, sequence (P31941 whole entry): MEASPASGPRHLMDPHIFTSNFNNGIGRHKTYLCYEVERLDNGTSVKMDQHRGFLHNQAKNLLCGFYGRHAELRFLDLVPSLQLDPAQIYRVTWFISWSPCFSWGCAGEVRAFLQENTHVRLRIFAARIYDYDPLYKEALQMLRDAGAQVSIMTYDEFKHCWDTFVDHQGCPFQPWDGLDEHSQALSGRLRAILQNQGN

[6] = biological target: DNA dC->dU-editing enzyme APOBEC-3G (Homo sapiens, UniProt Q9HC16); assay type: functional;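 further: Dose-response counterscreen measuring inhibition of APOBEC3G DNA deaminase activity, run while confirming APOBEC3A inhibitors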
DNA dC->dU-editing enzyme APOBEC-3G, sequence (Q9HC16 whole entry): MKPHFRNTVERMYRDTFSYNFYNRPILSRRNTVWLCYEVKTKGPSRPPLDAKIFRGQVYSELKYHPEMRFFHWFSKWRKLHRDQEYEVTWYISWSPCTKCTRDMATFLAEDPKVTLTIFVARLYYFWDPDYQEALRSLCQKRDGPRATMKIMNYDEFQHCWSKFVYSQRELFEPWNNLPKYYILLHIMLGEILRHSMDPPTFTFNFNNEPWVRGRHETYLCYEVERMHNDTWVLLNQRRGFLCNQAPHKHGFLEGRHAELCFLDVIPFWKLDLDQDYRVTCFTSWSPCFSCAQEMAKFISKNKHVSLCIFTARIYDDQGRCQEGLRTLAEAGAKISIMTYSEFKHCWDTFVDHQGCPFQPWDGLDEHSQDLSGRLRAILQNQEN

Kallikrein-7 = Kallikrein-7 (Homo sapiens, UniProt P49862); experiment: Fluorescence Intensity-based biochemical primary high throughput dose response assay to identify activators of kallikrein-7 (K7) zymogen.
Kallikrein-7, sequence (P49862 whole entry): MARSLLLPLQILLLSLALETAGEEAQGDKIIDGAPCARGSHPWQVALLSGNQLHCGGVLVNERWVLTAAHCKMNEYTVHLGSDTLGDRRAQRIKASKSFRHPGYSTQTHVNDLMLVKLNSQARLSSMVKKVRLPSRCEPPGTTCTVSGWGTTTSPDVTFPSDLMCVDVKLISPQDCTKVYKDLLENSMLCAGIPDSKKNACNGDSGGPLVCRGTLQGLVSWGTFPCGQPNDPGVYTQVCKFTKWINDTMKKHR

14-3-3 protein gamma = biological target: T4, 14-3-3 protein gamma (Homo sapiens, UniProt P61981); experiment: modulators of 14-3-3 gamma client binding – dose response (AID 711); assay type: functional
T4 sequence (P61981 whole entry): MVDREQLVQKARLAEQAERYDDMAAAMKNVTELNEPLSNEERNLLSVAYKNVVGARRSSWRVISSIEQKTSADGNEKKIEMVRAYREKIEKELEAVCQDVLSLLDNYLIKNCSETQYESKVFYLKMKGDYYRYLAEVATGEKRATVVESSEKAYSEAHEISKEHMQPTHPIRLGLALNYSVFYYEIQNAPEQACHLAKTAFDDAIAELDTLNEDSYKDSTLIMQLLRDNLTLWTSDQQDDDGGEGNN

Ephrin type-A receptor 4 = Ephrin type-A receptor 4 (Mus musculus, UniProt Q03137); experiment: EphA4 ligand-binding antagonists – biochemical, colorimetric, mouse EphA4, primary screen (AID 689); assay type: functional
Ephrin type-A receptor 4, sequence (Q03137 whole entry): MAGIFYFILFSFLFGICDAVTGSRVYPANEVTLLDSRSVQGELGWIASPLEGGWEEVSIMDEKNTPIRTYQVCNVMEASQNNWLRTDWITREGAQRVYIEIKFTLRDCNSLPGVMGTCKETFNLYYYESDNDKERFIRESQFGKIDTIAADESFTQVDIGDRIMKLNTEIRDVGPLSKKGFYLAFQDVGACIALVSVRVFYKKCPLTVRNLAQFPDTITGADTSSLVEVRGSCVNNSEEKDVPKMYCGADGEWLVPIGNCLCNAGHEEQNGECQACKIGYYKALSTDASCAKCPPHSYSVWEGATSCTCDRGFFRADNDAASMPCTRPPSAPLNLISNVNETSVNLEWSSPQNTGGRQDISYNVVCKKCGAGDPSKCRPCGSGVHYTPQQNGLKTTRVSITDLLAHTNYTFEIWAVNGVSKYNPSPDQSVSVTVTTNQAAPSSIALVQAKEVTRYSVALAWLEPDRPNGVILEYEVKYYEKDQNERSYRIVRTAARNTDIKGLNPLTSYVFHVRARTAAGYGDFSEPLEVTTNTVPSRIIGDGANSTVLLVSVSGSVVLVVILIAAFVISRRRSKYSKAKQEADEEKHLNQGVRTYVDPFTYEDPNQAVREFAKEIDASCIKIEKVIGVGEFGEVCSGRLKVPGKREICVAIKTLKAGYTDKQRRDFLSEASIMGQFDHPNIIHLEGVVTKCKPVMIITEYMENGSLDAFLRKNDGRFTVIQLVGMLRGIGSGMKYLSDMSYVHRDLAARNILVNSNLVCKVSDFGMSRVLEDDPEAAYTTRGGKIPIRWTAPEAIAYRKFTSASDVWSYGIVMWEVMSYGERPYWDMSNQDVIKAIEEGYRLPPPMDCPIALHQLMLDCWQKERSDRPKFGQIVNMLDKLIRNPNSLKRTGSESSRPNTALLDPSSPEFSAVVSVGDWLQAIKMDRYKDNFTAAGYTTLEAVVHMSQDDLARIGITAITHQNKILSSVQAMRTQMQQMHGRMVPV

[7] = Trypanosoma cruzi growth suppression in host cells – NIH3T3 host cells, beta-gal luminescence, confirmation (AID 2044); assay type: functional, cell-based;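 further: intracellular parasites grown in NIH/3T3 mouse fibroblasts as host cells; luminescent beta-galactosidase reporter signal from transgenic T. cruzi replicating inside host cells; inhibitors lower the luminescence signal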
[8] = NIH3T3 cell viability loss – ATP luminescence, mouse fibroblasts, counter-screen, dose response (AID 2010); assay type: functional, cell-based;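 further: cells exposed to compound for about 90 hours before reading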
[9] = Luminescence Cell-Based Dose Retest to Confirm Inhibitors of Cancer Stem Cells. [Related pubchem assays (depositor defined):AID2717, AID2721]; assay type: functional; settings: Homo sapiens
[10] = biological target: G-protein coupled receptor 183 (Homo sapiens, UniProt P32249); experiment: SAR confirmation of small molecule antagonists of the EBI2 receptor via a luminescent beta-arrestin assa.; assay type: functional
G-protein coupled receptor 183, sequence (P32249 whole entry): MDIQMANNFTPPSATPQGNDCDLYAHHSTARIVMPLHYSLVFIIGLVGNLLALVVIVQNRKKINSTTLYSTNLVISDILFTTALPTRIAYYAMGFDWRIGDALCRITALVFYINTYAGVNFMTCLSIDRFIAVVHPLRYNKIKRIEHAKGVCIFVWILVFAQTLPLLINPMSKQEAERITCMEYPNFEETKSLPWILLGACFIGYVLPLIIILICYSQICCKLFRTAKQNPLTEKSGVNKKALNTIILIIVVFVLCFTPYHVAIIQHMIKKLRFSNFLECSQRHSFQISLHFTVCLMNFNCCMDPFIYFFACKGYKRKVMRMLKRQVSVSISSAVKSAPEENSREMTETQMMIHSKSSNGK

[11] = biological target: T5, 5-hydroxytryptamine receptor 1A (Homo sapiens, UniProt P08908); assay type: functional
T5 sequence (P08908 whole entry): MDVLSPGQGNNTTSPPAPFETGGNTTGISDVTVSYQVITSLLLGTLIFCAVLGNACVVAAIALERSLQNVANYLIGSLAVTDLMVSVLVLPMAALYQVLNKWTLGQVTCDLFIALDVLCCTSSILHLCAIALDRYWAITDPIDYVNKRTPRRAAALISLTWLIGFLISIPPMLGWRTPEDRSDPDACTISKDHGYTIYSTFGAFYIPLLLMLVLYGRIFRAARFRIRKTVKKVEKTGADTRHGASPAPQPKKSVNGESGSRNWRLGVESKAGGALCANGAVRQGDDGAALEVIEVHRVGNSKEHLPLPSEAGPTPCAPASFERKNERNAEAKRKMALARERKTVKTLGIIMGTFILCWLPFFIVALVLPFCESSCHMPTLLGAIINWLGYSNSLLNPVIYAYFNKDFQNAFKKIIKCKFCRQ

[12] = viability of uninfected HEp-2 cells – cell-based, HTS, cytotoxicity control for RSV inhibitor project, dose response (AID 2410); assay type: functional; settings: human respiratory syncytial virus
[13] = biological target: T6, High affinity choline transporter 1 (Homo sapiens, UniProt Q9GZV3); experiment: human choline transporter blockers, potency – cell-based, 5-point CRC, membrane potential dye, dose response (AID 504840); assay type: functional
T6 sequence (Q9GZV3 whole entry): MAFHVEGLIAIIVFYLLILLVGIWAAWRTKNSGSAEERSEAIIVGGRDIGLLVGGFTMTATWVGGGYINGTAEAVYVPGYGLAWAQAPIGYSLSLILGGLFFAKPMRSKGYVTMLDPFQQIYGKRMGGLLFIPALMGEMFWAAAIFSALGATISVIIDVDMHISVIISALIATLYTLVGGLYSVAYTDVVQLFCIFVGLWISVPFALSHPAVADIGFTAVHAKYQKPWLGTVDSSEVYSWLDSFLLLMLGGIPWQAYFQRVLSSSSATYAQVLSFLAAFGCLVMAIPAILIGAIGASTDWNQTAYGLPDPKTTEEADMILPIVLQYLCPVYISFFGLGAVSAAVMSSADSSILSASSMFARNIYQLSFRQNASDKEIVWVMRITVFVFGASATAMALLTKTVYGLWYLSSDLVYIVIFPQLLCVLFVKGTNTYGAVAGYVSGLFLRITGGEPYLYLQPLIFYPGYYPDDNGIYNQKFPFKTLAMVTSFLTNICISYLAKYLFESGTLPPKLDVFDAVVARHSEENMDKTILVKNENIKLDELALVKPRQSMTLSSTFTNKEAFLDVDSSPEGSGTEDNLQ

[14] = biological target: Voltage-gated inwardly rectifying potassium channel KCNH2 (Homo sapiens, UniProt Q12809); experiment: concentration-dependent hERG rescue from blockers – cell-based, thallium flux, dose response (AID 2121); assay type: ADME
Voltage-gated inwardly rectifying potassium channel KCNH2, sequence (Q12809 whole entry): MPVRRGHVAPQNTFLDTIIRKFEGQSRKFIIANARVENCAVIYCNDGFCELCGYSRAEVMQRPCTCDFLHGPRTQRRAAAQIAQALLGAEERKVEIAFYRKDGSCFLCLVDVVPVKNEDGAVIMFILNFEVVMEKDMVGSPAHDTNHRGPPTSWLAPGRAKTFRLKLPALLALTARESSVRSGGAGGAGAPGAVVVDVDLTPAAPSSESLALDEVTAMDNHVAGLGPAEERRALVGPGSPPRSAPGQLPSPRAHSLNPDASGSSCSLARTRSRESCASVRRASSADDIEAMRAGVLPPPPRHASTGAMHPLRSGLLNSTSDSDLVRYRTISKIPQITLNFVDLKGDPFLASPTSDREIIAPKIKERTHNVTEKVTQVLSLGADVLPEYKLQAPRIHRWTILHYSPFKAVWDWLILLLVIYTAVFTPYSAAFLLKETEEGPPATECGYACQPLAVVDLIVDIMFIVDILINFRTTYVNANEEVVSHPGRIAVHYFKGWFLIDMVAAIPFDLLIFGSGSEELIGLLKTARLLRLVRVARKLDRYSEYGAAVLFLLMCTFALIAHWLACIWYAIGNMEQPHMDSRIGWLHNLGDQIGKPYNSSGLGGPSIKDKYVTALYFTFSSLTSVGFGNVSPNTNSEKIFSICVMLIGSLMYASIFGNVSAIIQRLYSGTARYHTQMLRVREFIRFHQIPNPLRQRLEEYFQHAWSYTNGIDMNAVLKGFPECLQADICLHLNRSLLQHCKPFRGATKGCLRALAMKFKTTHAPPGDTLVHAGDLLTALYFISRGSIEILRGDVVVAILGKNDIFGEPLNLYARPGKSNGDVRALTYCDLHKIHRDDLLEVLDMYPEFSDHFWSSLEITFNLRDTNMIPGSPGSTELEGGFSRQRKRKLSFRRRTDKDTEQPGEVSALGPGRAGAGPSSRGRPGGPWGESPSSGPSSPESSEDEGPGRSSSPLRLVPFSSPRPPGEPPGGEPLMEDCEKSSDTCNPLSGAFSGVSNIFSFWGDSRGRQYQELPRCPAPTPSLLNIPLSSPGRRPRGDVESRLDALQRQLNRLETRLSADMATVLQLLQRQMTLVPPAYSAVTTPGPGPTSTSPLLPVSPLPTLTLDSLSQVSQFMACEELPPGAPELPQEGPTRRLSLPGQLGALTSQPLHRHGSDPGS

ORF 73 = biological target: T7, ORF 73 (Human herpesvirus 8, UniProt O40947); experiment: KSHV LANA DNA-binding disruption – biochemical, fluorescence polarization, cherry-picked samples, dose response (AID 504725); design: species or system Human gammaherpesvirus 8;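 further: fluorescence polarization of a labeled DNA duplex reporting LANA DNA binding; potency is for inhibitors that block LANA binding to the DNA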
T7 sequence (O40947 whole entry): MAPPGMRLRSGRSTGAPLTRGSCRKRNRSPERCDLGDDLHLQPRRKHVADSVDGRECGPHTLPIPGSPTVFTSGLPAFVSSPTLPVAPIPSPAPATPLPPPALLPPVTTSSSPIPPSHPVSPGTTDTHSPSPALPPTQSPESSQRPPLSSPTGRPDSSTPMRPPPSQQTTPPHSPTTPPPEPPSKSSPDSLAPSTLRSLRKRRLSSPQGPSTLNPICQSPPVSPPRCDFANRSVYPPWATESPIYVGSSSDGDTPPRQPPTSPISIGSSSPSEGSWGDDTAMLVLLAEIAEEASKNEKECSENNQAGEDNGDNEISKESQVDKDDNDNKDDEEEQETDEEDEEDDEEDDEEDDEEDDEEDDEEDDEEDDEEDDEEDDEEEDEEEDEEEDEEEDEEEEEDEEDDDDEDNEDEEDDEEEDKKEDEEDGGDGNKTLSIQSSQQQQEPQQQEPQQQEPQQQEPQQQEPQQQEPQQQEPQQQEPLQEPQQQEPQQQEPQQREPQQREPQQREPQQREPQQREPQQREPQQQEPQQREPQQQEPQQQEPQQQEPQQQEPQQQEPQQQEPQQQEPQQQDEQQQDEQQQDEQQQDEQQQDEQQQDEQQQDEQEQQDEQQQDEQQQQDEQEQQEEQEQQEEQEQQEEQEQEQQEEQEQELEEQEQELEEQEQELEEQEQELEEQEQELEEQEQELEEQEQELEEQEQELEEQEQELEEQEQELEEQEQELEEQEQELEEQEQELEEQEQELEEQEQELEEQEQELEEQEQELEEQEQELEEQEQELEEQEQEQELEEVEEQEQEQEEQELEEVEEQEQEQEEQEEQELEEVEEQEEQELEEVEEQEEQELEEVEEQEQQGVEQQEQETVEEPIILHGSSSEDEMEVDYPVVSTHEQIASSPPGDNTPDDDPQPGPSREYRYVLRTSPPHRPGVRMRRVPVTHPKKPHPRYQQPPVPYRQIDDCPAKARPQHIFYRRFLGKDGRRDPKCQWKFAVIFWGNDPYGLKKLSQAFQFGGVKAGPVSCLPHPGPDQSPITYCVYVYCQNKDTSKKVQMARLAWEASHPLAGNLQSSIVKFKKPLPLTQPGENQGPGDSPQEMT

[15] = biological target: DNA (cytosine-5)-methyltransferase 1 (Homo sapiens, UniProt P26358); experiment: inhibition of DNA methylation by DNMT1 – biochemical, fluorescent molecular beacon, confirmation (AID 602386); assay type: functional
[16] = biological target: 26S proteasome non-ATPase regulatory subunit 14 (Homo sapiens, UniProt O00487); experiment: inhibition of proteasome subunit RPN11 – biochemical, fluorescence polarization, uHTS hits, confirmation (AID 602368); assay type: functional
26S proteasome non-ATPase regulatory subunit 14, sequence (O00487 whole entry): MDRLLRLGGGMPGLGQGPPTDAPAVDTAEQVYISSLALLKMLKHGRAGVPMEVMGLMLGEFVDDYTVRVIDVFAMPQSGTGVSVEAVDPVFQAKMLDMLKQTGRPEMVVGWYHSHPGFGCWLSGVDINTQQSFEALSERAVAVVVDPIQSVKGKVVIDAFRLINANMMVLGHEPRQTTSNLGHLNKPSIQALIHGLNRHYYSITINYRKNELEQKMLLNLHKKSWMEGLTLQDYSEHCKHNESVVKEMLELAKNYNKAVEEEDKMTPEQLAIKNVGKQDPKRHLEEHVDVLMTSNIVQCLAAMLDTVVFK

[17] = biological target: 72 kDa type IV collagenase (Homo sapiens, UniProt P08253); experiment: Dose Response validation of uHTS RPN11 inhibitor hits using a MMP-2 Fluorescence assay.; assay type: functional
72 kDa type IV collagenase, sequence (P08253 whole entry): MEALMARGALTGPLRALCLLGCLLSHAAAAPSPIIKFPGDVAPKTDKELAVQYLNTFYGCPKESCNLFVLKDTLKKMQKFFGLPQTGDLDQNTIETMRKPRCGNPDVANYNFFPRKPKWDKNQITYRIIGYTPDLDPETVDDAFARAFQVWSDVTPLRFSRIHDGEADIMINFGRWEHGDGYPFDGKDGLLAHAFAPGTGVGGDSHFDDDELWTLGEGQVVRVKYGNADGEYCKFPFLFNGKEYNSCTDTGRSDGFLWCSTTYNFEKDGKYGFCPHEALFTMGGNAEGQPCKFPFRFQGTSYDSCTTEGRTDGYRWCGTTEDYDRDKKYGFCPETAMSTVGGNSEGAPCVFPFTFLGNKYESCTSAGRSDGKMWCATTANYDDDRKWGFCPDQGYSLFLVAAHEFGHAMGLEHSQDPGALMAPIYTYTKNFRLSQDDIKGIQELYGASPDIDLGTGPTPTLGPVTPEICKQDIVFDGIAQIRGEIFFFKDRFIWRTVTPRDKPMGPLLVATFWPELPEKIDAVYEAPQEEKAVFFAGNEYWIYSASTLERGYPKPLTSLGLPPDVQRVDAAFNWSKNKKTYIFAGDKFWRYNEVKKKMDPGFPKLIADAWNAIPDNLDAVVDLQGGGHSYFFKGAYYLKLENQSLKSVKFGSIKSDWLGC

Prothrombin = Prothrombin (Bos taurus, UniProt P00735); experiment: thrombin protease inhibitors – biochemical, fluorescence polarization, uHTS hits, dose response (AID 602369); assay type: functional

CC(CCc1ccccc1)NC(C)C(O)c1ccc(O)cc1 (stereo not given) [NYLIDRIN]
IC50 [1]: 14.5 µM (inactive)

CSc1nnc(SCc2nc3sc(C(=O)O)c(C)c3c(=O)[nH]2)s1
EC50 [2]: 25.4 µM (active) | EC50 [3]: 30.6 µM (active) | IC50 [4]: 76.2 µM (active) | IC50 [5]: 14 µM (active) | IC50 [6]: 24.6 µM (active)

Cc1ccc(NC(=O)C2=CC(c3cccs3)=NS(=O)(=O)N2C)cc1
EC50 (Kallikrein-7): 33.9 µM (inactive)

CCOc1ccc(N2C(=O)NC(=O)/C(=C\NCCN3CCNCC3)C2=O)cc1
IC50 (14-3-3 protein gamma): > 50 µM (not active)

Cc1nn(-c2ccccc2)c2c1C(c1cccnc1)N1C=C(S(=O)(=O)N3CCCCC3)C=CC1=N2 (stereo not given)
IC50 (Ephrin type-A receptor 4): > 100 µM (not active)

Cc1cc(Nc2cccc(F)c2)nc(-c2ccccc2O)n1
EC50 [7]: 4.15 µM (active) | EC50 [8]: > 60 µM (not active) | AC50 [9]: 3.68 µM (active) | EC50 (Kallikrein-7): > 69.5 µM (inactive)

CC(C)(C)c1ccc(S(=O)(=O)N2CCN(C(=O)/C=C/c3ccc(F)cc3)CC2)cc1
IC50 [10]: 12.4 nM (active)

O=C(Nc1cccc(-c2cn3ccsc3n2)c1)c1ccccc1
EC50 [11]: > 50 µM (not active)

Cc1cccc(N2CCN(C(=O)Cc3c(C(=O)O)[nH]c4ccc(Cl)cc34)CC2)c1C
CC50 [12]: 20.4 µM (active) | EC50 [11]: > 50 µM (not active) | IC50 [13]: 10.8 µM (active)

O=C1C2CC=CCC2C(=O)N1c1ccc(Cc2ccncc2)cc1 (stereo not given)
EC50 [14]: 860 nM (active)

O=C(/C=C/c1ccc(F)cc1)N1CCN(S(=O)(=O)c2cc(Cl)ccc2Cl)CC1
IC50 [10]: 21.9 nM (active)

CCOC(=O)c1sc(NN=C(C(=O)OC)C(=O)OC)c(C(=O)OCC)c1C
EC50 [14]: 210 nM (active)

COC(=O)c1ccccc1NC(=O)CCS(=O)(=O)c1ccc(Br)cc1
IC50 [4]: 28.6 µM (active) | AC50 (ORF 73): 31.5 µM (active) | IC50 [15]: 3.69 µM (active) | IC50 [16]: 14 µM (active) | IC50 [17]: 22.5 µM (active) | IC50 (Prothrombin): > 100 µM (inactive)

C/C(=C\C(=O)c1ccccc1)NNc1nc2ccccc2s1
IC50 (Ephrin type-A receptor 4): > 100 µM (not active)

COc1ccc(-n2ncc3c(N4CCCc5ccccc54)ncnc32)cc1
IC50 (14-3-3 protein gamma): > 50 µM (not active)

O=C(/C=C/c1ccc(Br)cc1)N1CCN(C(=O)c2ccc(Cl)cc2)CC1
IC50 [10]: 0.409 nM (active)
